Each compound was assayed against T1, α4β7 (adhesion of RPMI cells to CS-1) (Homo sapiens, UniProt P13612+P26010) (assay: RPMI-CS-1 cell adhesion assay). Conditions: adhesion of RPMI B-cell line (expresses α4β7) to CS-1 peptide coated microwells; read-out: RPMI-CS-1 IC50 value range.
T1 construct: endogenous in cells
T1 sequence (P13612 34-1032): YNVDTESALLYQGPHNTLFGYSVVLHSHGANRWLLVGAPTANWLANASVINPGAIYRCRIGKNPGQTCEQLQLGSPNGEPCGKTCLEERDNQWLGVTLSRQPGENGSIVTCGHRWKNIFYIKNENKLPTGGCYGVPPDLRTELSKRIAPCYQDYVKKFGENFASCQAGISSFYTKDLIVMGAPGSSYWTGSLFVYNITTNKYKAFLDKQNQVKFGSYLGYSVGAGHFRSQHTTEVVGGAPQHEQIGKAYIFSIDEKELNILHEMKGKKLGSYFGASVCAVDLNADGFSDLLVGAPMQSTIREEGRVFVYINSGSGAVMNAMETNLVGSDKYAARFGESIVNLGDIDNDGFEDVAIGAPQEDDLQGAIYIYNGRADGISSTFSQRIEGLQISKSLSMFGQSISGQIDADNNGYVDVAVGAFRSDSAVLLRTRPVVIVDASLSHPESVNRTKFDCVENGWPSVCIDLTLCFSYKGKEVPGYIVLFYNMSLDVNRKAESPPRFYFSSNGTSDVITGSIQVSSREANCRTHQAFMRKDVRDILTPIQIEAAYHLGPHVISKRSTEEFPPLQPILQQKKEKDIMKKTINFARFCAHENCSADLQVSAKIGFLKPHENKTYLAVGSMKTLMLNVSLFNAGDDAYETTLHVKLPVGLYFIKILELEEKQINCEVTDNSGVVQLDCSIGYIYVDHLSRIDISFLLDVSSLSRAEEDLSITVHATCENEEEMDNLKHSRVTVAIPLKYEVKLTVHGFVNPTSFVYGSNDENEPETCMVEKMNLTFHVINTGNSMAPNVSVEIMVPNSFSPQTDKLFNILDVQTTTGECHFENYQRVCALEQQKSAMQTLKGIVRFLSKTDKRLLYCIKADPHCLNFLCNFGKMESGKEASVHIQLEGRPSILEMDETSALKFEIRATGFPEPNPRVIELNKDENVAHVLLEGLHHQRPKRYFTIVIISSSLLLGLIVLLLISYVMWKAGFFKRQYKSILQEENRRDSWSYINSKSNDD
T1 sequence (P26010 20-798): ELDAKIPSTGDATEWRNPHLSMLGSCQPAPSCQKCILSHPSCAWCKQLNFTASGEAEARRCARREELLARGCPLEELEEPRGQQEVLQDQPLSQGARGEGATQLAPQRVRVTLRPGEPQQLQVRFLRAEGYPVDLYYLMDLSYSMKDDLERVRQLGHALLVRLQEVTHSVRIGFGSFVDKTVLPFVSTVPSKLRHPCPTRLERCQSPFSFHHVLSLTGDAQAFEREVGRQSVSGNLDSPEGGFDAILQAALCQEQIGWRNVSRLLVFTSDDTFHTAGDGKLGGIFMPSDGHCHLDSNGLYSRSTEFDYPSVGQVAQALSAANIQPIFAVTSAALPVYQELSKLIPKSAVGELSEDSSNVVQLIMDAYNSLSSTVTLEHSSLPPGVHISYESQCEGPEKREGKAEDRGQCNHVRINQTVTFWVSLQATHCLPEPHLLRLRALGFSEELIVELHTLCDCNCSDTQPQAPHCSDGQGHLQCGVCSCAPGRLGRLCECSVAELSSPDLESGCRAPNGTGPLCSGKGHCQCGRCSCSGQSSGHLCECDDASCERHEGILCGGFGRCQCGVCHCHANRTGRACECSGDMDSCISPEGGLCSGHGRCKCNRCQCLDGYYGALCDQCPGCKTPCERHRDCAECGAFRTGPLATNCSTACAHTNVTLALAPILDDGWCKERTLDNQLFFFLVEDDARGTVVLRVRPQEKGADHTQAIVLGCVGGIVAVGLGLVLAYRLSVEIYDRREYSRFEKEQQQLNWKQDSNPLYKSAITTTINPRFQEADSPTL
Assay type: cell-based
With `O=C(N[C@@H](Cc1ccc(-c2c(Cl)cccc2Cl)cc1)C(=O)O)c1c(Cl)cccc1Cl` [Example 141] the IC50 was 300 to 1000 nM. In the case of `COc1cc(C#N)c(-c2ccc(C[C@H](NC(=O)c3c(Cl)cccc3Cl)C(=O)O)cc2)c(OC)c1` [Example 142], the IC50 is reported as < 300 nM. For `CSc1ccccc1-c1ccc(C[C@H](NC(=O)c2c(Cl)cccc2Cl)C(=O)O)cc1` [Example 143], the IC50 was < 300 nM. For `COc1ncnc(OC)c1-c1ccc(C[C@H](NC(=O)c2c(Cl)cccc2Cl)C(=O)O)cc1` [Example 144], the IC50 was < 300 nM. `CS(=O)(=O)c1ccccc1-c1ccc(C[C@H](NC(=O)c2c(Cl)cccc2Cl)C(=O)O)cc1` [Example 152B, N-(2,6-Dichlorobenzoyl)-4-[2-(methylsulfonyl)phenyl]-L-phenyl-alanine] was tested, and the IC50 was < 300 nM. `COc1c(F)cc(F)c(OC)c1-c1ccc(C[C@H](NC(=O)c2c(Cl)cccc2Cl)C(=O)O)cc1` [Example 153B, N-(2,6-dichlorobenzoyl)-4-(2,6-dimethoxy-3,5-difluorophenyl)-L-phenylalanine] was tested, and the IC50 was < 300 nM. `COc1c(F)cc2c(c1-c1ccc(C[C@H](NC(=O)c3c(Cl)cccc3Cl)C(=O)O)cc1)OCO2` [Example 154, N-(2,6-Dichlorobenzoyl)-4-(2,3-methylenedioxy-5-fluoro-6-methoxyphenyl)-L-phenylalanine] was tested, and the IC50 was < 300 nM. `COc1cc(N(C)C)cc(OC)c1-c1ccc(C[C@H](NC(=O)c2c(Cl)cccc2Cl)C(=O)O)cc1` [Example 164, N-(2,6-Dichlorobenzoyl)-4-[2,6-dimethoxy-4-(dimethylamino)phenyl]-L-phenylalanine] was tested, and the IC50 was < 300 nM. With `COc1ccccc1-c1ccc(C[C@H](NC(=O)c2ccc(C(=O)OC(C)(C)C)cc2Cl)C(=O)O)cc1` [Example 176, N-[2-Chloro-4-(tert-butoxycarbonyl)benzoyl]-4-(2-methoxyphenyl)-L-phenylalanine] the IC50 was 300 to 1000 nM. For `COc1ccccc1-c1ccc(C[C@H](NC(=O)c2ccc(C(=O)O)cc2Cl)C(=O)O)cc1` [Example 177, N-[2-Chloro-4-carboxybenzoyl]-4-(2-methoxyphenyl)-L-phenylalanine], the IC50 was < 300 nM. For `COc1ccccc1-c1ccc(C[C@H](NC(=O)c2ccc(C(N)=O)cc2Cl)C(=O)O)cc1` [Example 178, N-[2-Chloro-4-carbamoylbenzoyl]-4-(2-methoxyphenyl)-L-phenylalanine], the IC50 was < 300 nM. In the case of `COc1ccccc1-c1ccc(C[C@H](NC(=O)c2ccc(C(=O)NS(C)(=O)=O)cc2Cl)C(=O)O)cc1` [Example 179, N-[2-Chloro-4-[N-(methanesulfonyl)carbamoyl]-benzoyl]-4-(2-methoxyphenyl)-L-phenylalanine], the IC50 is reported as < 300 nM. For `COc1ccccc1-c1ccc(C[C@H](NC(=O)c2cc(NS(=O)(=O)C(F)(F)F)ccc2Cl)C(=O)O)cc1` [Example 180, N-[2-Chloro-5-[(trifluoromethanesulfonyl)amino]-benzoyl]-4-(2-methoxyphenyl)-L-phenylalanine], the IC50 was < 300 nM. For `COc1ccccc1-c1ccc(C[C@H](NC(=O)c2cccc(NS(=O)(=O)C(F)(F)F)c2Cl)C(=O)O)cc1` [Example 181, N-[2-Chloro-3-[(trifluoromethanesulfonyl)amino]-benzoyl]-4-(2-methoxyphenyl)-L-phenylalanine], the IC50 was 300 to 1000 nM. With `COc1ccccc1-c1ccc(C[C@H](NC(=O)c2c(Cl)cc(NS(=O)(=O)C(F)(F)F)cc2Cl)C(=O)O)cc1` [Example 182, N-[2,6-Dichloro-4-[(trifluoromethanesulfonyl)amino]benzoyl]-4-(2-methoxyphenyl)-L-phenylalanine] the IC50 was < 300 nM. In the case of `COc1cccc(OC)c1-c1ccc(C[C@H](NC(=O)c2ccc(NS(=O)(=O)C(F)(F)F)cc2Cl)C(=O)O)cc1` [Example 183, N-[2-Chloro-4-[(trifluoromethanesulfonyl)amino]-benzoyl]-4-(2,6-dimethoxyphenyl)-L-phenylalanine], the IC50 is reported as < 300 nM. With `COc1cccc(OC)c1-c1ccc(C[C@H](NC(=O)c2c(Cl)cc(NS(=O)(=O)C(F)(F)F)cc2Cl)C(=O)O)cc1` [Example 184, N-[2,6-Dichloro-4-[(trifluoromethanesulfonyl)amino]benzoyl]-4-(2,6-dimethoxyphenyl)-L-phenylalanine] the IC50 was < 300 nM. `COc1ccccc1-c1ccc(C[C@@H](NC(=O)c2cccc(NS(=O)(=O)C(F)(F)F)c2Cl)C(=O)O)cc1` [Example 186, N-[2-Chloro-3-[(trifluoromethanesulfonyl)amino]-benzoyl]-4-(2-methoxyphenyl)-D-phenylalanine] was tested, and the IC50 was 300 to 1000 nM. In the case of `COc1ccccc1-c1ccc(C[C@H](NC(=O)c2ccc(NS(=O)(=O)c3ccc(C(F)(F)F)cc3)cc2Cl)C(=O)O)cc1` [Example 187, N-[2-Chloro-4-[[(4-trifluoromethylphenyl)sulfonyl]amino]benzoyl]-4-(2-methoxyphenyl)-L-phenylalanine], the IC50 is reported as < 300 nM. For `COc1ccccc1-c1ccc(C[C@H](NC(=O)c2ccc(NS(=O)(=O)c3ccc(C)cc3)cc2Cl)C(=O)O)cc1` [Example 188, N-[2-Chloro-4-(tosylamino)benzoyl]-4-(2-methoxyphenyl)-L-phenylalanine], the IC50 was < 300 nM. For `COc1ccccc1-c1ccc(C[C@H](NC(=O)c2ccc(NS(=O)(=O)c3ccc(F)cc3)cc2Cl)C(=O)O)cc1` [Example 189, N-[2-Chloro-4-[[(4-fluorophenyl)sulfonyl]amino]benzoyl]-4-(2-methoxyphenyl)-L-phenylalanine], the IC50 was < 300 nM. For `COc1ccc(S(=O)(=O)Nc2ccc(C(=O)N[C@@H](Cc3ccc(-c4ccccc4OC)cc3)C(=O)O)c(Cl)c2)cc1` [Example 190, N-[2-Chloro-4-[[(4-methoxyphenyl)sulfonyl]amino]-benzoyl]-4-(2-methoxyphenyl)-L-phenylalanine], the IC50 was < 300 nM. For `COc1ccccc1-c1ccc(C[C@H](NC(=O)c2ccc(NS(=O)(=O)c3cccs3)cc2Cl)C(=O)O)cc1` [Example 191, N-[2-Chloro-4-[(2-thienylsulfonyl)amino]benzoyl]-4-(2-methoxyphenyl)-L-phenylalanine], the IC50 was < 300 nM. In the case of `COc1ccccc1-c1ccc(C[C@H](NC(=O)c2ccc(NS(=O)(=O)c3ccccc3C)cc2Cl)C(=O)O)cc1` [Example 192, N-[2-Chloro-4-[[(2-methylphenyl)sulfonyl]amino]benzoyl]-4-(2-methoxyphenyl)-L-phenylalanine], the IC50 is reported as < 300 nM. `COc1ccccc1-c1ccc(C[C@H](NC(=O)c2ccc(NC(=S)NCc3ccccc3)cc2Cl)C(=O)O)cc1` [Example 194, N-[4-(3-Benzylthioureido)-2-chlorobenzoyl]-4-(2-methoxyphenyl)-L-phenylalanine] showed an IC50 of 1000 to 5000 nM. For `COc1ccccc1-c1ccc(C[C@H](NC(=O)c2ccc(NC(=S)NC(C)C)cc2Cl)C(=O)O)cc1` [Example 195], the IC50 was 300 to 1000 nM. With `COc1ccccc1-c1ccc(C[C@H](NC(=O)c2ccc(O)cc2Cl)C(=O)O)cc1` [Example 209] the IC50 was < 300 nM. Compound `COc1ccccc1-c1ccc(C[C@H](NC(=O)c2ccc(S(N)(=O)=O)cc2)C(=O)O)cc1` [Example 210] has an IC50 of 1000 to 5000 nM. With `COc1ccccc1-c1ccc(C[C@H](NC(=O)c2ccc(S(C)(=O)=O)cc2Cl)C(=O)O)cc1` [Example 211] the IC50 was < 300 nM. In the case of `O=Cc1sccc1-c1ccc(C[C@H](NC(=O)c2c(Cl)cccc2Cl)C(=O)O)cc1` [Example 214, N-(2,6-Dichlorobenzoyl)-4-(2-formyl-3-thienyl)-L-phenylalanine], the IC50 is reported as 300 to 1000 nM. For `O=C(N[C@@H](Cc1ccc(-c2ccncc2)cc1)C(=O)O)c1c(Cl)cccc1Cl` [Example 217, N-(2,6-Dichlorobenzoyl)-4-(4-pyridyl)-L-phenylalanine], the IC50 was 1000 to 5000 nM.

Source: US6855843B2, “Inhibitors of α4 mediated cell adhesion” (Tanabe Seiyaku Co., Ltd., priority 1998, dated 2005)
